Laboratory results: BigSolDB 2.1

CC(=O)c1ccc(S(C)(=O)=O)cc1
solubility (mole fraction)
Conditions | in cyclohexane | in ethanol | in ethyl acetate | in ethylene glycol | in isobutanol | in methanol | in n-butanol | in n-hexane | in n-propanol
278.15 K | 0.0049 | 0.0123 | 0.0253 | 0.0179 | 0.0074 | 0.0161 | 0.0087 | 0.003 | 0.0104
283.15 K | 0.0056 | 0.0137 | 0.027 | 0.0194 | 0.0083 | 0.0173 | 0.0096 | 0.0038 | 0.0114
288.15 K | 0.0065 | 0.0154 | 0.0295 | 0.0211 | 0.0094 | 0.019 | 0.0111 | 0.0049 | 0.0129
293.15 K | 0.0079 | 0.0172 | 0.0326 | 0.0238 | 0.0108 | 0.0215 | 0.0125 | 0.0062 | 0.0144
298.15 K | 0.0091 | 0.0197 | 0.0361 | 0.0273 | 0.0124 | 0.0246 | 0.014 | 0.0077 | 0.0162
303.15 K | 0.0109 | 0.0221 | 0.0402 | 0.0307 | 0.0142 | 0.0281 | 0.016 | 0.0099 | 0.0185
308.15 K | 0.0129 | 0.0249 | 0.0446 | 0.035 | 0.016 | 0.0321 | 0.018 | 0.0121 | 0.021
313.15 K | 0.0154 | 0.0283 | 0.0501 | 0.0395 | 0.0186 | 0.0369 | 0.0205 | 0.0146 | 0.0241
318.15 K | 0.0182 | 0.0325 | 0.0565 | 0.045 | 0.0211 | 0.0421 | 0.0234 | 0.0171 | 0.0273
323.15 K | 0.0217 | 0.0381 | 0.0639 | 0.0507 | 0.0246 | 0.0481 | 0.0271 | 0.0204 | 0.0318
328.15 K | 0.0255 | 0.0441 | 0.0745 | 0.0597 | 0.0284 | 0.0568 | 0.0315 | 0.0241 | 0.0365
